Laboratory results from patent US20240002350A1, “PROTEIN AND LIPID THERAPEUTIC TARGETS” (UNIVERSITY OF PITTSBURGH-OF THE COMMONWEALTH SYSTEM OF …, priority 2020, published 2024).

Test system: 15LOX/PEBP1
Assay: Potency of 15LOX/PEBP1 inhibitors with anti-ferroptotic effect (Table 1)
Assay type: cell-based
Details: not given
From the text: Development and testing of new compounds that inhibit 15LOX/PEBP1 complex activity. A combination of computational and experimental studies are used. […] Computer modeling considers specific features of organization of 15LOX/PEBP1 complexes and positioning of AA-PE as well as regio-specific oxygenation of AA-residues at 15th carbon. […] It has been shown that: i) binding interface of 15LOX in 15LOX/PEBP1 complex includes a helix on 15LOX (α2) and kinase binding epitope (D144, H145, R146) on PEBP1 (FIG. 8); and ii) interfacial interactions play a pivotal role in allosterically altering conformational dynamics of 15LOX in complex, and its substrate specificity. Analysis of change in access to catalytic site upon PEBP1 binding, using elastic network models indicates needed sites at 15LOX/PEBP1 binding interface. Dynamics simulations are also performed, for 15LOX alone and 15LOX/PEBP1 complex. An effective inhibitor, NCG-01, with in vivo activity has been indicated. Several other 15LOX/PEBP1 inhibitors with anti-ferroptotic effect (FIG. 9) have been identified. To test the effectiveness of compounds identified from the computational screen, RSL3 and mechanical stretch models with LDH and PI assays as a primary outcome are performed. The compounds that inhibit cell death by at least 50% are then evaluated for their effects on AA-PE and AA oxidation by 15LOX/PEBP1 complex and 15LOX alone, respectively, by LC-MS. Evaluation of the effect of compounds in suppressing AA-PE-OOH formation in cells upon proferroptotic stimuli is also performed.

Structure (SMILES) | Potency
Cc1cccc(CSc2nc(-c3ccccc3)cn2-c2cccc(F)c2)c1 [Compound 43, 1-(3-fluorophenyl)-2-((3-methylbenzyl)thio)-4-phenyl-1H-imidazole] | + (+ > 1 μM)
NS(=O)(=O)c1ccc(CSc2nc(-c3ccccc3)cn2-c2cccc(F)c2)cc1 [Compound 44, 4-(((1-(3-fluorophenyl)-4-phenyl-1H-imidazol-2-yl)thio)methyl)benzenesulfonamide] | + (+ > 1 μM)
CC(C)(C)c1ccc(CSc2nc(-c3ccccc3)cn2-c2cccc(F)c2)cc1 [Compound 45, 2-((4-(tert-butyl)benzyl)thio)-1-(3-fluorophenyl)-4-phenyl-1H-imidazole] | + (+ > 1 μM)
Fc1cccc(-n2cc(-c3ccccc3)nc2SCc2cccc(Br)c2)c1 [Compound 46, 2-((3-bromobenzyl)thio)-1-(3-fluorophenyl)-4-phenyl-1H-imidazole] | + (+ > 1 μM)
CC(C)c1ccc(CSc2nc(-c3ccccc3)cn2-c2cccc(F)c2)cc1 [Compound 47, 1-(3-fluorophenyl)-2-((4-isopropylbenzyl)thio)-4-phenyl-1H-imidazole] | + (+ > 1 μM)
Fc1cccc(-n2cc(-c3ccccc3)nc2SCc2ccc(C(F)(F)F)cc2F)c1 [Compound 48, 2-((2-fluoro-4-(trifluoromethyl)benzyl)thio)-1-(3-fluorophenyl)-4-phenyl-1H-imidazole] | + (+ > 1 μM)
CC(=O)Nc1ccc(CSc2nc(-c3ccccc3)cn2-c2cccc(F)c2)cc1 [Compound 49, N-(4-(((1-(3-fluorophenyl)-4-phenyl-1H-imidazol-2-yl)thio)methyl)phenyl)acetamide] | + (+ > 1 μM)
NC(=O)c1ccc(CSc2nc(-c3ccccc3)cn2-c2cccc(F)c2)cc1 [Compound 50, 4-(((1-(3-fluorophenyl)-4-phenyl-1H-imidazol-2-yl)thio)methyl)benzamide] | + (+ > 1 μM)
Fc1cccc(-n2cc(-c3ccccc3)nc2SCc2ccc(OC(F)F)cc2)c1 [Compound 51, 2-((4-(difluoromethoxy)benzyl)thio)-1-(3-fluorophenyl)-4-phenyl-1H-imidazole] | + (+ > 1 μM)
Fc1cccc(-n2cc(-c3ccccc3)nc2SCc2ccc(C(F)F)cc2)c1 [Compound 52, 2-((4-(difluoromethyl)benzyl)thio)-1-(3-fluorophenyl)-4-phenyl-1H-imidazole] | + (+ > 1 μM)
CC(C)(C)OC(=O)Nc1ccc(CSc2nc(-c3ccccc3)cn2-c2cccc(F)c2)cc1 [Compound 53, tert-butyl (4-(((1-(3-fluorophenyl)-4-phenyl-1H-imidazol-2-yl)thio)methyl)phenyl)carbamate] | + (+ > 1 μM)
CC(Sc1nc(-c2ccccc2)cn1-c1cccc(F)c1)c1ccc(C(F)(F)F)cc1 (stereo not drawn) [Compound 54, 1-(3-fluorophenyl)-4-phenyl-2-((1-(4-(trifluoromethyl)phenyl)ethyl)thio)-1H-imidazole] | + (+ > 1 μM)
N#Cc1ccc(CSc2nc(-c3ccccc3)cn2-c2cccc(F)c2)cc1 [Compound 55, 4-(((1-(3-fluorophenyl)-4-phenyl-1H-imidazol-2-yl)thio)methyl)benzonitrile] | + (+ > 1 μM)
N#Cc1ccc(CNc2nc(-c3ccccc3)cn2-c2cccc(F)c2)cc1 [Compound 56, 4-(((1-(3-fluorophenyl)-4-phenyl-1H-imidazol-2-yl)amino)methyl)benzonitrile] | ++ (++ = 101-1000 nM)
Cc1cccc(CNc2nc(-c3ccccc3)cn2-c2cccc(F)c2)c1 [Compound 57, 1-(3-fluorophenyl)-N-(3-methylbenzyl)-4-phenyl-1H-imidazol-2-amine] | ++ (++ = 101-1000 nM)
Fc1cccc(-n2cc(-c3ccccc3)nc2NCc2cccc(C(F)(F)F)c2F)c1 [Compound 58, N-(2-fluoro-3-(trifluoromethyl)benzyl)-1-(3-fluorophenyl)-4-phenyl-1H-imidazol-2-amine] | ++ (++ = 101-1000 nM)
Fc1cccc(-n2cc(-c3ccccc3)nc2NCc2ccc(Cl)cc2)c1 [Compound 59, N-(4-chlorobenzyl)-1-(3-fluorophenyl)-4-phenyl-1H-imidazol-2-amine] | ++ (++ = 101-1000 nM)
Fc1cccc(-n2cc(-c3ccccc3)nc2NCc2ccccc2)c1 [Compound 61, N-benzyl-1-(3-fluorophenyl)-4-phenyl-1H-imidazol-2-amine] | ++ (++ = 101-1000 nM)
COc1cccc(CNc2nc(-c3ccccc3)cn2-c2cccc(F)c2)c1 [Compound 62, 1-(3-fluorophenyl)-N-(3-methoxybenzyl)-4-phenyl-1H-imidazol-2-amine] | ++ (++ = 101-1000 nM)
Fc1cccc(-n2cc(-c3ccccc3)nc2NCc2cccc(C(F)(F)F)c2)c1 [Compound 63, 1-(3-fluorophenyl)-4-phenyl-N-(3-(trifluoromethyl)benzyl)-1H-imidazol-2-amine] | ++ (++ = 101-1000 nM)
Fc1cccc(-n2cc(-c3ccccc3)nc2NCc2ccc(F)c(F)c2)c1 [Compound 64, N-(3,4-difluorobenzyl)-1-(3-fluorophenyl)-4-phenyl-1H-imidazol-2-amine] | ++ (++ = 101-1000 nM)
Fc1cccc(-n2cc(-c3ccc(Br)cc3)nc2SCc2ccc(C3(C(F)(F)F)N=N3)cc2)c1 [Compound 65, 4-(4-bromophenyl)-1-(3-fluorophenyl)-2-((4-(3-(trifluoromethyl)-3H-diazirin-3-yl)benzyl)thio)-1H-imidazole] | + (+ > 1 μM)
Fc1cccc(-n2cc(-c3ccccc3)nc2NCc2ccc(C(F)(F)F)c(Br)c2)c1 [Compound 66, N-(3-bromo-4-(trifluoromethyl)benzyl)-1-(3-fluorophenyl)-4-phenyl-1H-imidazol-2-amine] | ++ (++ = 101-1000 nM)
COc1cc(CNc2nc(-c3ccccc3)cn2-c2cccc(F)c2)ccc1C(F)(F)F [Compound 67, 1-(3-fluorophenyl)-N-(3-methoxy-4-(trifluoromethyl)benzyl)-4-phenyl-1H-imidazol-2-amine] | ++ (++ = 101-1000 nM)
Fc1cccc(-n2cc(-c3ccccc3)nc2NCc2ccc(C(F)(F)F)c(Cl)c2)c1 [Compound 68, N-(3-chloro-4-(trifluoromethyl)benzyl)-1-(3-fluorophenyl)-4-phenyl-1H-imidazol-2-amine] | ++ (++ = 101-1000 nM)
Cc1cc(CNc2nc(-c3ccccc3)cn2-c2cccc(F)c2)ccc1C(F)(F)F [Compound 69, 1-(3-fluorophenyl)-N-(3-methyl-4-(trifluoromethyl)benzyl)-4-phenyl-1H-imidazol-2-amine] | ++ (++ = 101-1000 nM)

Test system: neurons
Assay: Severe mechanical stretch injury in neurons
Assay type: cell-based, rat
Details: 3-4 psi; Fer-1 0.4 μM, Triacsin C 10 μM, baicalein 5 μM
Experimental: Mean+SD, N=4/group, *p<0.05 vs 0 h. […] Mean±SD, N=3-4/group, *p<0.05 vs control, #p<0.05 vs vehicle. […] Mean+SD, N=4/group, *p<0.05 vs vehicle.
Time course studies (0, 4, 8, 24 and 72 h) of TBI-induced changes in i) PE oxidation (oxidative lipidomics); ii) expression and activity of 15LOX, PEBP1, ACSL4, LPCAT3, iPLA2β and GPX4 (western blot); iii) formation of 15LOX/PEBP1 complexes (dual object recognition); and iv) GSH levels (fluorescent assay) will be performed as follows. An established model of in vitro TBI, severe mechanical stretch injury in primary cortical neurons, can be used. In brief, cortical neurons are cultured on 0.05% poly-D-lysine hydrobromide coated silicone substrate wells, and subjected to a computer controlled quantifiable mechanical insult by displacing the silicone substrate over a hollowed platform. In vivo TBI is induced by severe CCI (6-mm impactor tip, velocity of ±0.2 m/secs, deformation depth of 2.5 mm, impact duration of 50 msecs) to left parietal cortex in male and female PND 17 rats. To maximize rigor and reproducibility, animals are assigned to either sham (anesthesia and craniotomy) or CCI groups by block randomization. To ensure appropriate sample size for robustness, power analyses are performed in each experimental context. A sample size of 5 is preferred to detect a 25% difference in PE-OOH between CCI and control based on standard deviation observed in the experiments with an alpha of 0.05 and power of 0.80. Group assignments are blinded to the investigators who perform biochemical and histological endpoints. Statistical differences are analyzed using one-way ANOVA with post-hoc comparisons between groups if overall p<0.05 as appropriate. To address biological variability, both sexes are included.

Structure (SMILES) | cell death after severe mechanical stretch injury
CCOC(=O)c1ccc(NC2CCCCC2)c(N)c1 [Fer-1] | rescued
